Measurements reported in PubChem BioAssay AID2305 (GlaxoSmithKline (GSK), 2010).

Each molecule was assayed on P. falciparum 3D7 growth, pLDH absorbance (assay: P. falciparum 3D7 growth inhibition, dose response, strain 3D7 (AID 2305)).

In order of rising IC50:
1. CC(C)C[C@H](NC(=O)c1ccc(OCCN2CCOCC2)cc1)C(=O)N[C@H](/C=N/NC(=O)c1ccccc1)CCc1ccccc1  60 nM
2. COc1ccc(C(=O)N2CCC3(CC2)C(=O)N(CC(=O)NCC2CCCCC2)CN3c2ccccc2)c(OC)c1  120 nM
3. c1ccc(CN2CCN(CCCCNc3c4ccccc4nc4ccccc34)CC2)cc1  120 nM
4. CC(=NNC(=S)NC(C)(C)C)c1ccccn1  160 nM
5. C[C@H](Cc1ccc(C(=O)OC(c2ccccc2)c2ccccc2)cc1)NC[C@H](O)c1ccccc1  180 nM
6. Cc1noc(C)c1-c1cccc(CNCc2ccc(-c3ccc(-c4nc5ccc(C(F)(F)F)cc5[nH]4)s3)cc2)c1  180 nM
7. Nn1c(=O)oc2ccc(Cl)cc2c1=O  190 nM
8. O=C(NCC1CC1)C1CCN(C(c2ccc(Cl)cc2)c2ccc(Cl)cc2)CC1  190 nM
9. Cc1cccc2[nH]c(-c3cccc(-c4ccc(NC(=O)Nc5ccc(Cl)cc5)cc4)c3)nc12  200 nM
10. CN1C(=O)C(=O)N(CCCCCON=C(N)N)C1=S  200 nM
11. Cc1nc(-c2cccc3c(NC(=O)Nc4ccc5nccc(N6CCN(C)CC6)c5c4)cccc23)no1  230 nM
12. CC[C@H]1CN2CC[C@H]1C[C@H]2[C@H](O)c1cc(-c2ccccc2C(F)(F)F)nc2ccc(OC)cc12  230 nM
13. O=C(NCCN1CCC(c2ncc(-c3ccccc3)o2)CC1)c1ccc(NC(=O)c2ccc(Cl)cc2)cc1  240 nM
14. O=C(Cn1c(=O)cnc2ccccc21)Nc1cccc(C(=O)Nc2cccc(C(F)(F)F)c2)c1  280 nM
15. O=C(c1cccc(-c2cccc(-c3nc4ccc(C(F)(F)F)cc4[nH]3)c2)c1)N1CCCCC1CN1CCC(O)C1 (configuration not stated)  280 nM
16. COc1cccc(OC)c1CN1CCC(N(C)CCCCCCCCCN2CCC(OC(=O)Nc3ccccc3-c3ccccc3)CC2)CC1  320 nM
17. COc1cccc(CN2CCCC(COC(c3ccc(F)cc3)c3ccc(F)cc3)C2)c1O (configuration not stated)  330 nM
18. CC1=CC(=O)[C@@H](O)[C@]2(C)[C@H]3[C@@]4(O)OC[C@@]35[C@@H](C[C@@H]12)OC(=O)C[C@H]5[C@@H](C)[C@H]4O  350 nM
19. Cc1cc(NN=Cc2ccccc2[N+](=O)[O-])c2ccc(F)cc2n1  350 nM
20. O=C(/C=C/c1ccc(Cl)c(Cl)c1)NCC1CCC(CN2CCC(c3c[nH]c4ccccc34)CC2)CC1 (configuration not stated)  360 nM
21. CCN(CC)c1ccc(C(c2ccc(N(CC)CC)cc2)c2cccc([N+](=O)[O-])c2)cc1  380 nM
22. Clc1ccc2c(NCCNc3ccnc4cc(Cl)ccc34)ccnc2c1  400 nM
23. Oc1cccc(Nc2nc(NCc3ccco3)c3ccccc3n2)c1  410 nM
24. CC(=O)c1ccc(NC(=O)Nc2ccc3nccc(N4CCN(C)CC4)c3c2)cc1  430 nM
25. Cc1cc(NN=Cc2ccccc2F)c2cc(C(F)(F)F)ccc2n1  430 nM
26. Cc1cccc(Cn2nc(-c3ccccc3)c(N3CCCCC3)cc2=O)c1  460 nM
27. COc1ccc2ncc(Cl)c(CCN3CCC(NCc4ccc5c(n4)NC(=O)CO5)CC3)c2c1  470 nM
28. COc1ccc(C(=O)[C@H]2C[C@@H]2CN2CC=C(c3c[nH]c4ccc(OC)nc34)CC2)cc1  480 nM
29. COCCNCc1ncsc1-c1ccc2c(Nc3cc(O)c(Cl)cc3F)ccnc2c1  550 nM
30. O=C(/C=C/c1ccc(Cl)c(Cl)c1)NCCCCCCN1CCCN(C(=O)Nc2ccc(C(F)(F)F)cc2)CC1  580 nM
31. Fc1ccc2nc(-c3ccc(-c4ccc(CNCC5CCCO5)cc4)s3)[nH]c2c1 (configuration not stated)  600 nM
32. O=C(C=Cc1ccc(F)cc1)N1CCN(S(=O)(=O)c2ccc(Cl)cc2)CC1  630 nM
33. CC(CCc1ccccc1)NCC(O)c1ccc2c3c(cccc13)S(=O)(=O)N2C (configuration not stated)  630 nM
34. Cc1ccc(Nc2nc(NN=Cc3ccc(-c4ccc([N+](=O)[O-])cc4)o3)nc(N3CCOCC3)n2)cc1Cl  650 nM
35. Cc1cccc(CNc2nc(C)cc(N[C@@H](Cc3ccccc3)C(=O)NC3CCCC3)n2)c1  650 nM
36. Oc1ccc(Cl)cc1CN1CCC(CCOC(c2ccccc2)c2ccccc2)CC1  650 nM
37. O=C(Nc1cccc(CN2CCCN(Cc3ccc(O)cc3)CC2)c1)c1cc(F)cc(F)c1  660 nM
38. CC1CN(Cc2cccc(C#N)c2)CCN1c1ccc(NC(=O)c2cccs2)cc1 (configuration not stated)  680 nM
39. COc1ccc2nccc([C@@H](O)CN3CCC(NC(=O)c4cccc(C(=O)c5ccccc5)c4)CC3)c2c1  690 nM
40. Cc1cccn2c(=O)c3cc(C(=O)NCc4cccnc4)c(=N)n(CCc4ccccc4)c3nc12  710 nM
41. Cc1ccc(NC(=O)NC2CCN(c3ccnc4ccccc34)C2)cc1 (configuration not stated)  710 nM
42. COc1cc(CNCCCNc2cc(=O)c3ccccc3[nH]2)c2c(c1)C(C)CN2C(=O)OC(C)(C)C (configuration not stated)  730 nM
43. Cc1cc(=O)c(C2CCC(c3ccc(Cl)cc3)CC2)c(C)[nH]1 (configuration not stated)  740 nM
44. COc1ccc(O)c(C(=O)c2cc(C#N)c(=O)n(-c3ccc(Oc4ccccc4)cc3)c2)c1  740 nM
45. COc1cccc(C=CC(=O)NC2CCC(CN3CCC(c4c[nH]c5ccccc45)CC3)CC2)c1OC (configuration not stated)  740 nM
46. Cc1cnc(CS(=O)c2nc3ccc(C(F)(F)F)cc3[nH]2)cc1OCc1ccccc1 (configuration not stated)  740 nM
47. O=C(C=Cc1cc([N+](=O)[O-])ccc1Cl)NC1CCC(CN2CCC(c3c[nH]c4ccccc34)CC2)CC1 (configuration not stated)  740 nM
48. O=C(NCCCCN1CCC(c2ccc3c(c2O)CCCC3)CC1)c1ccc(-c2ccc(Cl)cc2)cc1  750 nM
49. Cc1ccc(CC(C)NCC(O)c2cccc([N+](=O)[O-])c2)cc1 (configuration not stated)  760 nM
50. CC(C)(C)N1CCC(N(Cc2ccc(-c3ccc(C(F)(F)F)cc3)cc2)C(=O)Cn2c(CCc3cccc(F)c3F)nc(=O)c3cccnc32)CC1  760 nM
51. COc1ccc(C=NNc2cc(C)nc3ccc(OC)cc23)c(OC)c1  780 nM
52. COc1ccc(-c2cccc(NC(=O)c3ccc(Cl)cc3)c2)cc1CN1CCCC1  780 nM
53. Cc1nc(-c2cccc(Nc3nccc(NCC(O)c4ccccc4)n3)c2)cs1 (configuration not stated)  790 nM
54. C=Cc1cc(OC)c2c(c1)c(=O)oc1c2cc(OC)c2c(O)ccc([C@H]3O[C@H]([C@@H](C)O)[C@H](O)[C@H]3O)c21  790 nM
55. CCCCOC(C(=O)OCC1CCCN1C)(c1ccccc1)c1ccccc1 (configuration not stated)  790 nM
56. Nc1ccncc1C(=O)NCCCCN1CCN(c2nsc3ccccc23)CC1  800 nM
57. N=C(N)c1ccc(Nc2nc(Nc3ccc(-c4ccccc4)cc3)ncc2[N+](=O)[O-])cc1  800 nM
58. O=c1cc(NCCCNC2CCCc3c2ccc2ccccc32)[nH]c2ccccc12 (configuration not stated)  820 nM
59. CCCNc1ccc(-c2cc(C(N)=O)c3[nH]cc(C4CCN(S(=O)(=O)CC)CC4)c3c2)cn1  820 nM
60. C=C[C@H]1CN(CCCCCCC)CC[C@H]1CC(O)Cc1ccnc2cc(O)c(OC)cc12 (some centres not stated)  820 nM
61. CCOc1c(Cl)cc(Cl)cc1CNCCCNc1nc2ccccc2[nH]1  830 nM
62. OCCN1CCN(c2nc(Nc3cccc(F)c3)c3cnn(-c4ccccc4)c3n2)CC1  830 nM
63. Cc1nc(C)c(CC(=O)Nc2cccc(-c3cccc(-c4nc5ccc(C(F)(F)F)cc5[nH]4)c3)c2)s1  830 nM
64. CCCCCN1CCC(NC(=O)c2ccc(C(=O)Nc3ccc(C(C)C)cc3)cc2)CC1  850 nM
65. Cc1cccc2[nH]c(-c3ccc(-c4cccc(NC(=O)c5cncn5C)c4)cc3)nc12  860 nM
66. Cc1cc(NCCC(=O)NCCOc2ccccc2)nc(NCCOc2ccccc2)n1  870 nM
67. Cc1cc(N2CCN(C(=O)OC(C)(C)C)CC2)ccc1N  870 nM
68. CC1CCc2sc(-c3nnc(SC(C)C(=O)N4CCCC4)o3)cc2C1 (configuration not stated)  880 nM
69. Cc1ccc(-c2noc(COc3ccccc3C(=O)NC3CCCC3)n2)cc1  880 nM
70. Cc1ccc(Cl)cc1N1CCN(CCCNC(=O)C2CCN(c3nc4ccccc4[nH]3)CC2)CC1  900 nM
71. COc1cc(C)nc2ccc(NC(=O)c3cc(C(F)(F)F)cc(C(F)(F)F)c3)cc12  910 nM
72. OC(CNc1ccnc(Nc2cccc(OCCCN3CCOCC3)c2)n1)c1ccccc1 (configuration not stated)  920 nM
73. CCNc1cc(C(=O)N[C@@H](Cc2ccccc2Cl)[C@H](O)CNC(C)CCCC(C)C)cc(N2CCCCS2(=O)=O)c1 (some centres not stated)  930 nM
74. COc1c(I)cc(Cc2cnc(N)nc2N)cc1I  930 nM
75. CCCCCc1cc(OC(C)=O)c2c(c1)OC(C)(C)C=C2C1=CCN(Cc2ccccc2)CC1  930 nM
76. O=C(Cc1cccc(OCCCN(Cc2cccc(C(F)(F)F)c2Cl)CC(c2ccccc2)c2ccccc2)c1)NCc1ccco1  940 nM
77. COC(=O)c1ccc(CC(C)NCC(O)c2cccc3ccccc23)cc1 (configuration not stated)  940 nM
78. Cc1ccc2cc(C3NC(=O)c4ccccc4N3)c(Cl)nc2c1 (configuration not stated)  940 nM
79. CN1CCC(NCc2ccc(-c3cccc(S(=O)(=O)NCC4CCCO4)c3)cc2)CC1 (configuration not stated)  940 nM
80. O=C(Nc1cc(Oc2ccc(O)cc2)cc([N+](=O)[O-])c1)c1cc(-c2ccc(F)cc2)no1  960 nM
81. O=C(Nc1ccc(N2CCN(Cc3c[nH]c4cc(F)ccc34)CC2)cc1)c1ccccc1-c1ccc(C(F)(F)F)cc1  990 nM
82. O=S1C(Cl)=C(c2ccc(Cl)cc2)c2ccc(Cl)cc21 (configuration not stated)  990 nM
83. N#Cc1ccc(C=NNc2nc3ccccc3[nH]2)cc1  1000 nM
84. Cc1noc(-c2ccc3c(c2)CCN(CCC2CCC(NC(=O)/C=C/c4cccc(Cl)c4)CC2)CC3)n1 (configuration not stated)  1000 nM
85. O=C(/C=C/c1ccc(C(F)(F)F)cc1)NCCCCCN1CCN(C(=O)Nc2ccc(Cl)cc2)CC1  1010 nM
86. COc1ccc2[nH]cc(C3CCN(CCCCNC(=O)c4ccc(NC(=O)c5ccc(Cl)cc5)cc4)CC3)c2c1  1020 nM
87. COc1cccc(-c2[nH]c3ccccc3c2CN2CCC(c3c(C)cccc3C)CC2)c1  1020 nM
88. CC(C)CC(NC(=O)c1ccc(F)cc1)C(=O)N[C@H](/C=N/N1CCNC1=O)CC(C)C (some centres not stated)  1030 nM
89. Oc1ccc(CCNc2nc(NCCCOc3ccccc3-c3cccnc3)nc(N3CCNCC3)n2)cc1  1040 nM
90. O=C(NCc1cccs1)[C@H](Cc1ccccc1)Nc1ccnc(NCC2CCCCC2)n1  1050 nM
91. O=C(CSc1nc(-c2ccccc2Cl)ns1)Nc1cccc(F)c1  1110 nM
92. Cc1c(C)n(Cc2ccccc2)c2ncnc(OC3CCN(CC(=O)NCC4CC4)CC3)c12  1120 nM
93. COc1cccc(-c2ccc(C(=O)NCC3CCCN(Cc4cccc(C(F)(F)F)c4)C3)s2)c1 (configuration not stated)  1140 nM
94. Cc1cc(-c2ccc(CNCCc3cccs3)cc2)ccc1S(=O)(=O)NCc1ccccc1  1140 nM
95. CC(C)(CN)c1cc(-c2ccc(Cl)c(O)c2)c(-c2ccncc2)o1  1140 nM
96. CCC(C)NC(=O)Cn1c2ncccc2c(=O)n1-c1ccc(C)cc1 (configuration not stated)  1260 nM
97. CC(Sc1n[nH]c(-c2cccs2)n1)C(=O)c1c[nH]c2ccccc12 (configuration not stated)  1800 nM
